Laboratory results: article PMC5712521, “Dendrogenin A drives LXR to trigger lethal autophagy in cancers” (Nature Communications, 2017)

Assays:
primary AML cells = assay: Patient-derived primary AML cells engrafted into NSG mice; format: in vivo; conditions: three patients; 20 mg/kg/d i.p., 19 days
Protocol: The engraftment of human primary AML cells was performed on NSG mice. Briefly, human primary AML cells, HL60 cells or normal CD34+ cells were resuspended in PBS, and 0.8 × 10^6 to 2 × 10^6 viable trypan blue-negative cells were injected intravenously into NSG mice that had been previously irradiated for 24 h with 2.25 Gy. Two and a half weeks after the injection of human cells, mice were treated with DDA (20 mg/kg/day by IP injection) or vehicle as control for 2, 3 weeks, after which the engraftment of human AML and normal hematopoietic cells was measured in the bone marrow, spleen and brain by quantifying the percentage of hCD45+CD33+ cells by flow cytometry. The viability of AML cells was established by quantifying the percentage of hCD45+CD33+Annexin-V- cells.

B16F10 cells = assay: Clonogenicity (colony formation) inhibition; format: cell-based; conditions: Mus musculus, B16-F10; B16F10 (M); 72 h; read-out: Clono IC50
Description: (§1) Supplementary Fig. 1. a DDA inhibited m elanom a colony form ation. Melanom a cells were […]
(§2) a 0.5% solution of crystal violet in water and analyzed by microscopy. Images are representative of 5 independent experiments. b Evaluation of DDA-induced cytotoxicity (cytotox) and clonogenicity (clono) inhibition in a subset of human (H) and mouse (M) m elanom a cell lines. T he BRaf status in m elanom a cells lines is shown. […]

SKMEL-28 cells = assay: Clonogenicity (colony formation) inhibition; format: cell-based; conditions: Homo sapiens, SK-MEL-28; SKMEL-28 (H); 72 h; read-out: Clono IC50
Description: as §1, §2

A375 cells = assay: DDA-induced cytotoxicity; format: cell-based; conditions: Homo sapiens, A-375; A375 (H), BRaf V600E; 72 h; read-out: Cytotox EC50
Protocol: (§3) Melanoma cells were seeded into 6-well plates at 60,000 cells per well and AML cells at 250,000 cells/ml. The cells were then treated with control solvent vehicle (1/1000 ethanol in water) or DDA. Where indicated, treated cells were incubated in the presence or absence of each inhibitor for time shown. Cell death was determined by the trypan blue exclusion assay. Cells were scraped and resuspended in trypan blue solution (0.25% (w/v) in PBS) and counted in a Malassez cell under light microscopy. Cell viability was then quantified by counting viable (trypan blue-negative) and dead cells (trypan blue-positive). […]
(§4) (cytotox) and clonogenicity (clono) inhibition in a subset of human (H) and mouse (M)
(§5) m elanom a cell lines. T he BRaf status in m elanom a cells lines is shown. […]

WM115 cells = assay: DDA-induced cytotoxicity; format: cell-based; conditions: Homo sapiens, WM-115; WM115 (H), BRaf V600E; 72 h; read-out: Cytotox EC50
Protocol: as §3, §4, §5

WM-266-4 cells = assay: DDA-induced cytotoxicity; format: cell-based; conditions: Homo sapiens; WM-266-4 (H), BRaf WT; 72 h; read-out: Cytotox EC50
Protocol: as §3, §4, §5

WM35 cells = assay: DDA-induced cytotoxicity; format: cell-based; conditions: Homo sapiens; WM35 (H), BRaf V600E; 72 h; read-out: Cytotox EC50
Protocol: as §3, §4, §5

SKMEL-2 cells = assay: DDA-induced cytotoxicity; format: cell-based; conditions: Homo sapiens, SK-MEL-2; SKMEL-2 (H), BRaf WT; 72 h; read-out: Cytotox EC50
Protocol: as §3, §4, §5

## CC(C)CCC[C@@H](C)[C@H]1CC[C@H]2[C@@H]3C[C@@H](NCCc4cnc[nH]4)[C@@]4(O)C[C@@H](O)CC[C@]4(C)[C@H]3CC[C@]12C [DDA, Dendrogenin A]
Primary AML cells
  change in AML cell viability in bone marrow and spleen compared to controls: −19.6 ± 7.6%
  change in number of AML cells in bone marrow and spleen compared to controls: −57 ± 15%
B16F10 cells
  IC50: 1.2e-06 ± 3e-07 M
SKMEL-28 cells
  IC50: 1.4 ± 0.6 µM
A375 cells
  EC50: 1.8 ± 0.2 µM
WM115 cells
  EC50: 2.2 ± 0.2 µM
WM-266-4 cells
  EC50: 2.7 ± 0.4 µM
WM35 cells
  EC50: 1.6 ± 0.1 µM
SKMEL-2 cells
  EC50: 2.3 ± 0.1 µM
